Assay results from ChEMBL document CHEMBL3390836, “Mannich- and LedererManasse-based analogues of the natural product S-(+)-curcuphenol as cancer proliferation and migration inhibitors” (Medchemcomm, 2012).

Key:
Assay type in all cases: functional
[1] = test system: NCI-H23; test: Cytotoxicity against human NCI-H23 cells assessed as cell growth at 10^-4 M after 48 hrs by SRB assay relative to control; conditions: NCI-H23, 48 h, read-out: Activity
[2] = test system: SW-620; test: Cytotoxicity against human SW620 cells assessed as cell growth at 10^-4 M after 48 hrs by SRB assay relative to control; conditions: SW-620, 48 h, read-out: Activity
[3] = test system: SNB-75; test: Cytotoxicity against human SNB75 cells after 48 hrs by SRB assay; conditions: SNB-75, 48 h
[4] = test system: RXF 393; test: Cytotoxicity against human RXF393 cells after 48 hrs by SRB assay; conditions: RXF 393, 48 h
[5] = test system: SNB-75; test: Cytotoxicity against human SNB75 cells assessed as cell growth at 10^-4 M after 48 hrs by SRB assay relative to control; conditions: SNB-75, 48 h, read-out: Activity
[6] = Cytotoxicity against human Hs 578T cells after 48 hrs by SRB assay
[7] = test system: HOP-62; test: Cytotoxicity against human HOP62 cells assessed as cell growth at 10^-8 M after 48 hrs by SRB assay relative to control; conditions: HOP-62, 48 h, read-out: Activity
[8] = Cytotoxicity against human HCT116 cells assessed as cell growth at 10^-8 M after 48 hrs by SRB assay relative to control; conditions: HCT-116, 48 h, read-out: Activity
[9] = test system: HT-29; test: Cytotoxicity against human HT-29 cells assessed as cell growth at 10^-8 M after 48 hrs by SRB assay relative to control; conditions: HT-29, 48 h, read-out: Activity
[10] = test system: KM12; test: Cytotoxicity against human KM12 cells assessed as cell growth at 10^-8 M after 48 hrs by SRB assay relative to control; conditions: KM12, 48 h, read-out: Activity
[11] = test system: SK-MEL-2; test: Cytotoxicity against human SK-MEL-2 cells assessed as cell growth at 10^-4 M after 48 hrs by SRB assay relative to control; conditions: SK-MEL-2, 48 h, read-out: Activity
[12] = Cytotoxicity against human NCI-ADR-RES cells assessed as cell growth at 10^-4 M after 48 hrs by SRB assay relative to control; conditions: read-out: Activity
[13] = Cytotoxicity against human PC3 cells assessed as cell growth at 10^-4 M after 48 hrs by SRB assay relative to control; conditions: PC-3, 48 h, read-out: Activity
[14] = test system: MCF7; test: Cytotoxicity against human MCF7 cells assessed as cell growth at 10^-4 M after 48 hrs by SRB assay relative to control; conditions: MCF7, 48 h, read-out: Activity
[15] = test system: SK-MEL-28; test: Cytotoxicity against human SK-MEL-28 cells assessed as cell growth at 10^-8 M after 48 hrs by SRB assay relative to control; conditions: SK-MEL-28, 48 h, read-out: Activity
[16] = test system: SK-MEL-5; test: Cytotoxicity against human SK-MEL-5 cells assessed as cell growth at 10^-8 M after 48 hrs by SRB assay relative to control; conditions: SK-MEL-5, 48 h, read-out: Activity
[17] = Cytotoxicity against human NCI-ADR-RES cells assessed as cell growth at 10^-8 M after 48 hrs by SRB assay relative to control; conditions: read-out: Activity
[18] = Cytotoxicity against human SKOV3 cells assessed as cell growth at 10^-8 M after 48 hrs by SRB assay relative to control; conditions: SK-OV-3, 48 h, read-out: Activity
[19] = test system: RXF 393; test: Cytotoxicity against human RXF393 cells assessed as cell growth at 10^-8 M after 48 hrs by SRB assay relative to control; conditions: RXF 393, 48 h, read-out: Activity
[20] = test system: MCF7; test: Cytotoxicity against human MCF7 cells assessed as cell growth at 10^-8 M after 48 hrs by SRB assay relative to control; conditions: MCF7, 48 h, read-out: Activity
[21] = test system: MDA-MB-231; test: Cytotoxicity against human MDA-MB-231 cells assessed as cell growth at 10^-8 M after 48 hrs by SRB assay relative to control; conditions: MDA-MB-231, 48 h, read-out: Activity
[22] = test system: A549; test: Cytotoxicity against human A549 cells assessed as cell growth at 10^-7 M after 48 hrs by SRB assay relative to control; conditions: A549, 48 h, read-out: Activity
[23] = test system: COLO 205; test: Cytotoxicity against human COLO205 cells assessed as cell growth at 10^-7 M after 48 hrs by SRB assay relative to control; conditions: COLO 205, 48 h, read-out: Activity
[24] = test system: MDA-MB-435; test: Cytotoxicity against human MDA-MB-435 cells assessed as cell growth at 10^-7 M after 48 hrs by SRB assay relative to control; conditions: MDA-MB-435, 48 h, read-out: Activity
[25] = test system: K562; test: Cytotoxicity against human K562 cells after 48 hrs by SRB assay; conditions: K562, 48 h; for CC50: read-out: LC50 (the source's name)
[26] = test system: A549; test: Cytotoxicity against human A549 cells after 48 hrs by SRB assay; conditions: A549, 48 h
[27] = test system: NCI-H23; test: Cytotoxicity against human NCI-H23 cells after 48 hrs by SRB assay; conditions: NCI-H23, 48 h
[28] = test system: SW-620; test: Cytotoxicity against human SW620 cells after 48 hrs by SRB assay; conditions: SW-620, 48 h; for CC50: read-out: LC50 (the source's name)
[29] = Cytotoxicity against human NCI-ADR-RES cells assessed as cell growth at 10^-7 M after 48 hrs by SRB assay relative to control; conditions: read-out: Activity
[30] = test system: A498; test: Cytotoxicity against human A498 cells assessed as cell growth at 10^-7 M after 48 hrs by SRB assay relative to control; conditions: A498, 48 h, read-out: Activity
[31] = test system: MOLT-4; test: Cytotoxicity against human MOLT4 cells assessed as cell growth at 10^-6 M after 48 hrs by SRB assay relative to control; conditions: MOLT-4, 48 h, read-out: Activity
[32] = Cytotoxicity against human EKVX cells assessed as cell growth at 10^-6 M after 48 hrs by SRB assay relative to control; conditions: read-out: Activity
[33] = test system: SF-268; test: Cytotoxicity against human SF268 cells assessed as cell growth at 10^-6 M after 48 hrs by SRB assay relative to control; conditions: SF-268, 48 h, read-out: Activity
[34] = Cytotoxicity against human NCI-ADR-RES cells assessed as cell growth at 10^-6 M after 48 hrs by SRB assay relative to control; conditions: read-out: Activity
[35] = test system: A498; test: Cytotoxicity against human A498 cells assessed as cell growth at 10^-6 M after 48 hrs by SRB assay relative to control; conditions: A498, 48 h, read-out: Activity
[36] = Cytotoxicity against human EKVX cells assessed as cell growth at 10^-4 M after 48 hrs by SRB assay relative to control; conditions: read-out: Activity

Work on `CC(C)=CCC[C@H](C)c1ccc(C)c2c1OCN(CC1CCNCC1)C2` yielded a growth at 100 µM [1] of -71%, a growth at 100 µM [2] of -87% and a GI50 [3] of 11.9 µM. It also gave an LC50 [3] of 49.6 µM, a TGI [3] of 24.3 µM and a GI50 [4] of 9.2 µM. It also gave an LC50 (concentration killing 50% of cells) [4] of 88.3 µM, a TGI [4] of 21.7 µM and a growth at 100 µM [5] of -99%. It also gave a GI50 [6] of 13.3 µM, an LC50 [6] of 67 µM and a TGI [6] of 29.9 µM. The growth at 0.01 µM [7] was 104%, the growth at 0.01 µM [8] was 100% and the growth at 0.01 µM [9] was 102%. It also gave a growth at 0.01 µM [10] of 99%, a growth at 100 µM [11] of -78% and a growth at 100 µM [12] of -73%. For the same compound, the growth at 100 µM [13] was -46%, the growth at 100 µM [14] was -95% and the growth at 0.01 µM [15] was 107%. For the same compound, the growth at 0.01 µM [16] was 99%, the growth at 0.01 µM [17] was 104% and the growth at 0.01 µM [18] was 101%. For the same compound, the growth at 0.01 µM [19] was 86%, the growth at 0.01 µM [20] was 98% and the growth at 0.01 µM [21] was 101%. It also gave a growth at 0.1 µM [22] of 90%, a growth at 0.1 µM [23] of 108% and a growth at 0.1 µM [24] of 96%. The GI50 [25] was 2.68 µM, the TGI [25] was 8.44 µM and the CC50 [25] was 97.7 µM. The GI50 [26] was 13 µM, the LC50 [26] was 59.7 µM and the TGI [26] was 27.8 µM. It also gave a GI50 [27] of 15.7 µM, an LC50 [27] of 72 µM and a TGI [27] of 33.6 µM. The GI50 [28] was 9.87 µM, the TGI [28] was 23.1 µM and the CC50 [28] was 53.5 µM. For the same compound, the growth at 0.1 µM [29] was 98%, the growth at 0.1 µM [30] was 82% and the growth at 1 µM [31] was 100%. For the same compound, the growth at 1 µM [32] was 94%, the growth at 1 µM [33] was 102% and the growth at 1 µM [34] was 102%. It also gave a growth at 1 µM [35] of 102% and a growth at 100 µM [36] of -17%.
Work on `CC(C)=CCC[C@H](C)c1ccc(C)c(CNCC2CCNCC2)c1O` yielded a growth at 100 µM [1] of 54%, a growth at 100 µM [2] of -82% and a GI50 [3] of 3.89 µM. For the same compound, the LC50 [3] was over 25 µM, the TGI [3] was 12.3 µM and the GI50 [4] was 3.7 µM. The LC50 (concentration killing 50% of cells) [4] was over 25 µM, the TGI [4] was 13.4 µM and the growth at 100 µM [5] was -32%. For the same compound, the GI50 [6] was 6.53 µM, the LC50 [6] was over 25 µM and the TGI [6] was over 25 µM. For the same compound, the growth at 0.01 µM [7] was 96%, the growth at 0.01 µM [8] was 100% and the growth at 0.01 µM [9] was 108%. For the same compound, the growth at 0.01 µM [10] was 97%, the growth at 100 µM [11] was -70% and the growth at 100 µM [12] was 46%. The growth at 100 µM [13] was 6%, the growth at 100 µM [14] was -89% and the growth at 0.01 µM [15] was 102%. It also gave a growth at 0.01 µM [16] of 93%, a growth at 0.01 µM [17] of 100% and a growth at 0.01 µM [18] of 99%. For the same compound, the growth at 0.01 µM [19] was 101%, the growth at 0.01 µM [20] was 90% and the growth at 0.01 µM [21] was 105%. For the same compound, the growth at 0.1 µM [22] was 98%, the growth at 0.1 µM [23] was 101% and the growth at 0.1 µM [24] was 92%. The GI50 [25] was 1.01 µM, the TGI [25] was 4.86 µM and the CC50 [25] was 19.9 µM. For the same compound, the GI50 [26] was 7.27 µM, the LC50 [26] was over 25 µM and the TGI [26] was 24.9 µM. For the same compound, the GI50 [27] was over 25 µM, the LC50 [27] was over 25 µM and the TGI [27] was over 25 µM. For the same compound, the GI50 [28] was 4.11 µM, the TGI [28] was 8.14 µM and the CC50 [28] was 16.1 µM. It also gave a growth at 0.1 µM [29] of 100%, a growth at 0.1 µM [30] of 74% and a growth at 1 µM [31] of 99%. For the same compound, the growth at 1 µM [32] was 92%, the growth at 1 µM [33] was 92% and the growth at 1 µM [34] was 95%. It also gave a growth at 1 µM [35] of 79% and a growth at 100 µM [36] of 35%.
